What was measured:
Assay type in all cases: cell-based
HCC827 cells = assay: Cell growth inhibition (CellTiter-Glo), HCC827; conditions: Homo sapiens, 72 h, 3 days
Method: 2. Cell Growth Inhibition for HCC827, HCC827-SVD, HCC827-ASV, HCC827-YVMA, and A431.
HCC827(ATCC), HCC827-SVD, HCC827-ASV, and HCC827-YVMA cells were seeded in 96-well plates at 5000 cells/well in 90 μL of RPMI growth medium containing 10% FBS and 1% Penicillin Streptomycin. A431 (ATCC) cells were seeded in 96-well plates at 5000 cells/well in 90 μL of DMEM growth medium containing 10% FBS and 1% Penicillin Streptomycin. Cells were incubated at 37° C. overnight and then administered with 10 μL 10× test compounds prepared in the growth medium at various concentrations. After administration of the compounds, cells were incubated at 37° C. for 3 days. Before the CellTiter-Glo assay, the plates were equilibrated at room temperature for approximately 30 minutes. 100 ul of CellTiter-Glo reagent (Promega) was added to each well. The plates were then incubated at room temperature for 10 minutes and luminescence was recorded by the EnSight® multimode plate reader (PerkinElmer). Table 7 listed selected compounds in cellular growth assay.

[1] = tested on: HCC827-SVD cells (human EGFR exon 20 insertion mutant D770_N771insSVD); assay: Cell growth inhibition (CellTiter-Glo), HCC827-SVD; conditions: 72 h, 3 days
In short: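 Growth read by CellTiter-Glo luminescence after 3-day compound exposure at 37 °C. Engineered clonal HCC827 line (native EGFR deleted by CRISPR, mutant EGFR re-expressed) plated at 5000 cells/well in 10% FBS RPMI the night before dosing.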

[2] = tested on: HCC827-YVMA cells (human ERBB2 exon20 insertion mutant A775_G776ins YVMA); assay: Cell growth inhibition (CellTiter-Glo), HCC827-YVMA; conditions: 72 h, HCC827-YVMA cells, 3 days, CellTiter-Glo, read-out: Cell growth inhibition, GI50 (nM) HCC827-YVMA
In short: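 Growth in RPMI with 10% FBS was measured by CellTiter-Glo luminescence after 3 days at 37 °C with test compounds across a concentration range. The single-clone HCC827 lines carry a lentiviral YVMA (ERBB2) or ASV (EGFR) exon 20 insertion, with endogenous EGFR removed via sgRNA/Cas9.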

Compound | GI50 (HCC827 cells) [nM] | GI50 [1] [nM] | GI50 [2] [nM]
C=CC(=O)N1CCC(c2c[nH]c3ncnc(Nc4ccc(OCc5ccncn5)c(Cl)c4)c23)CC1 [Compound 114, 1-(4-(4-((3-chloro-4-(pyrimidin-4-ylmethoxy)phenyl)amino)-7H-pyrrolo[2,3-d]pyrimidin-5-yl)piperidin-1-yl)prop-2-en-1-one] | < 50 | < 50 | < 50
C=CC(=O)N1CCC(c2c[nH]c3ncnc(Nc4ccc(Oc5ccnc(-n6ccc(OC(C)C)n6)c5)cc4F)c23)CC1 [Compound 115, 1-(4-(4-((2-fluoro-4-((2-(3-isopropoxy-1H-pyrazol-1-yl)pyridin-4-yl)oxy)phenyl)amino)-7H-pyrrolo[2,3-d]pyrimidin-5-yl)piperidin-1-yl)prop-2-en-1-one] | 50 to 200 | 50 to 200 | 50 to 200
C=CC(=O)N1CCC(c2c[nH]c3ncnc(Nc4ccc(OCc5cc(Cl)ccn5)c(Cl)c4)c23)CC1 [Compound 117, 1-(4-(4-((3-chloro-4-((4-chloropyridin-2-yl)methoxy)phenyl)amino)-7H-pyrrolo[2,3-d]pyrimidin-5-yl)piperidin-1-yl)prop-2-en-1-one] | < 50 | < 50 | < 50
C=CC(=O)N1CCC(c2c[nH]c3ncnc(Nc4ccc(OCc5ccc(F)cn5)c(Cl)c4)c23)CC1 [Compound 118, 1-(4-(4-((3-chloro-4-((5-fluoropyridin-2-yl)methoxy)phenyl)amino)-7H-pyrrolo[2,3-d]pyrimidin-5-yl)piperidin-1-yl)prop-2-en-1-one] | < 50 | < 50 | < 50
C=CC(=O)N1CCC(c2c[nH]c3ncnc(Nc4ccc(Oc5ccnc(N6CCC(O)(C(F)(F)F)CC6)c5)cc4F)c23)CC1 [Compound 122, 1-(4-(4-((2-fluoro-4-((2-(4-hydroxy-4-(trifluoromethyl)piperidin-1-yl)pyridin-4-yl)oxy)phenyl)amino)-7H-pyrrolo[2,3-d]pyrimidin-5-yl)piperidin-1-yl)prop-2-en-1-one] | > 1000 | 200 to 1000 | 200 to 1000
C=CC(=O)N1CCC(c2c[nH]c3ncnc(Nc4ccc(Oc5ccnc(-c6cnn(C)c6)c5)cc4F)c23)CC1 [Compound 125, 1-(4-(4-((2-fluoro-4-((2-(1-methyl-1H-pyrazol-4-yl)pyridin-4-yl)oxy)phenyl)amino)-7H-pyrrolo[2,3-d]pyrimidin-5-yl)piperidin-1-yl)prop-2-en-1-one] | > 1000 | 200 to 1000 | 200 to 1000
C=CC(=O)N1CCC(c2c[nH]c3ncnc(Nc4ccc(OCc5ccc(Cl)cn5)c(Cl)c4)c23)CC1 [Compound 126, 1-(4-(4-((3-chloro-4-((5-chloropyridin-2-yl)methoxy)phenyl)amino)-7H-pyrrolo[2,3-d]pyrimidin-5-yl)piperidin-1-yl)prop-2-en-1-one] | < 50 | < 50 | < 50
C=CC(=O)N1CCC(c2c[nH]c3ncnc(Nc4ccc(OCc5ccncc5)c(Cl)c4)c23)CC1 [Compound 127, 1-(4-(4-((3-chloro-4-(pyridin-4-ylmethoxy)phenyl)amino)-7H-pyrrolo[2,3-d]pyrimidin-5-yl)piperidin-1-yl)prop-2-en-1-one] | 50 to 200 | < 50 | < 50
C=CC(=O)N1CCC(c2c[nH]c3ncnc(Nc4ccc(Oc5ccnc(N6CC7CC7C6)c5)cc4F)c23)CC1 (stereo not drawn) [Compound 131, 1-(4-(4-((4-((2-(3-azabicyclo[3.1.0]hexan-3-yl)pyridin-4-yl)oxy)-2-fluorophenyl)amino)-7H-pyrrolo[2,3-d]pyrimidin-5-yl)piperidin-1-yl)prop-2-en-1-one] | > 1000 | 50 to 200 | 50 to 200
C=CC(=O)N1CCC(c2c[nH]c3ncnc(Nc4ccc(Oc5ccn(Cc6cc(Oc7ccccc7)ccn6)n5)cc4F)c23)CC1 [Compound 151, 1-(4-(4-((2-fluoro-4-((1-((4-phenoxypyridin-2-yl)methyl)-1H-pyrazol-3-yl)oxy)phenyl)amino)-7H-pyrrolo[2,3-d]pyrimidin-5-yl)piperidin-1-yl)prop-2-en-1-one] | > 1000 | 200 to 1000 | 50 to 200
C=CC(=O)N1CCC(c2n[nH]c3ncnc(Nc4ccc(Oc5nc(-c6ccc(OC)nc6)cs5)cc4F)c23)CC1 [Compound 189, 1-(4-(4-((2-fluoro-4-((4-(6-methoxypyridin-3-yl)thiazol-2-yl)oxy)phenyl)amino)-1H-pyrazolo[3,4-d]pyrimidin-3-yl)piperidin-1-yl)prop-2-en-1-one] | > 1000 | 200 to 1000 | 200 to 1000
C=CC(=O)N1CCC(c2n[nH]c3ncnc(Nc4ccc(Oc5ccnc(NC(=O)C6CCCC6)c5)cc4F)c23)CC1 [Compound 193, N-(4-(4-((3-(1-acryloylpiperidin-4-yl)-1H-pyrazolo[3,4-d]pyrimidin-4-yl)amino)-3-fluorophenoxy)pyridin-2-yl)cyclopentanecarboxamide] | > 1000 | 50 to 200 | 50 to 200

More lines, now with the values ahead:

GI50 (HCC827 cells) [nM] | GI50 [1] [nM] | GI50 [2] [nM] | Compound
< 50 | < 50 | < 50 | C=CC(=O)N1CCC(c2c[nH]c3ncnc(Nc4ccc(OCc5cccnn5)c(Cl)c4)c23)CC1 [Compound 120, 1-[4-[4-[3-chloro-4-(pyridazin-3-ylmethoxy)anilino]-7H-pyrrolo[2,3-d]pyrimidin-5-yl]-1-piperidyl]prop-2-en-1-one]
< 50 | < 50 | < 50 | C=CC(=O)N1CCC(c2c[nH]c3ncnc(Nc4ccc(OCc5cccnc5)c(Cl)c4)c23)CC1 [Compound 121, 1-(4-(4-((3-chloro-4-(pyridin-3-ylmethoxy)phenyl)amino)-7H-pyrrolo[2,3-d]pyrimidin-5-yl)piperidin-1-yl)prop-2-en-1-one]
< 50 | < 50 | < 50 | C=CC(=O)N1CCC(c2c[nH]c3ncnc(Nc4ccc(OCc5ncccn5)c(Cl)c4)c23)CC1 [Compound 128, 1-(4-(4-((3-chloro-4-(pyrimidin-2-ylmethoxy)phenyl)amino)-7H-pyrrolo[2,3-d]pyrimidin-5-yl)piperidin-1-yl)prop-2-en-1-one]
> 1000 | 200 to 1000 | 50 to 200 | C=CC(=O)N1CCC(c2c[nH]c3ncnc(Nc4ccc(Oc5ccnc(N(C)C6CC(F)(F)C6)c5)cc4F)c23)CC1 [Compound 132, 1-(4-(4-((4-((2-((3,3-difluorocycloButyl)(methyl)amino)pyridin-4-yl)oxy)-2-fluorophenyl)amino)-7H-pyrrolo[2,3-d]pyrimidin-5-yl)piperidin-1-yl)prop-2-en-1-one]
> 1000 | 50 to 200 | 50 to 200 | C=CC(=O)N1CCC(c2c[nH]c3ncnc(Nc4ccc(Oc5ccnc(-n6ccc(C(C)C)n6)c5)cc4F)c23)CC1 [Compound 133, 1-(4-(4-((2-fluoro-4-((2-(3-isopropyl-1H-pyrazol-1-yl)pyridin-4-yl)oxy)phenyl)amino)-7H-pyrrolo[2,3-d]pyrimidin-5-yl)piperidin-1-yl)prop-2-en-1-one]
200 to 1000 | 50 to 200 | 50 to 200 | C=CC(=O)N1CCC(c2n[nH]c3ncnc(Nc4ccc(Oc5ccc(-c6cc(-c7ccccc7)[nH]c(=O)c6)nc5)c(Cl)c4F)c23)CC1 [Compound 170, 5-(4-((3-(1-acryloylpiperidin-4-yl)-1H-pyrazolo[3,4-d]pyrimidin-4-yl)amino)-2-chloro-3-fluorophenoxy)-6′-phenyl-[2,4′-bipyridin]-2′(1′H)-one]
